Measured values from patent US20080214509A1, “Methods for enhancing the efficacy of vascular disrupting agents” (priority 2007, published 2008).

What was measured:
[1] = test system: CEPs; assay: Circulating endothelial progenitor cell (CEP) levels in peripheral blood by flow cytometry, non-tumor bearing mice; format: in vivo; details: non-tumor bearing Balb/c mice; AMD-3100 5 mg/kg, CA1P 100 mg/kg; 4 hours or 24 hours post-treatment; FIG. 1
Protocol: Non-tumor bearing Balb/c mice (8-10 weeks old) were treated with one of the following agents: (i) 5 mg/kg of AMD-3100, a specific CXCR-4 antagonist; (ii) 100 mg/kg of CA1P, a VDA; or (iii) a combination of AMD-3100 and CA1P. At either 4 hours or 24 hours post-treatment, mice were bled from the retro-orbital sinus to evaluate levels of CEPs by flow cytometry.

[2] = test system: Lewis-Lung Carcinoma (LLC) cells; assay: Lewis-Lung Carcinoma tumors in irradiated mice transplanted with GFP+ bone marrow: necrosis and bone marrow cell incorporation; format: in vivo; details: LLC tumors in C57Bl mice with GFP+ bone marrow; day 4
Protocol: To assess the incorporation of bone marrow proangiogenic cells to the tumor site, Lewis-Lung Carcinoma (LLC) cells were implanted into the flanks of lethally irradiated C57Bl mice that were previously transplanted with GFP+bone marrow tagged cells. When tumors reached 500 mm^3, treatment with CA1P, AMD-3100 or the combination of the two was initiated. AMD-3100 was given in a concentration of 5 mg/kg for 3 sequential days. On day 4, mice were sacrificed and tumors removed for the evaluation of bone marrow derived cell (GFP+ cells) invasion and incorporation into tumor blood vessels (CD31+ cells). Tumors were also evaluated for necrosis by green fluorescence, as necrotic tissue is auto-fluorescent under GFP (fluorescent) channel.

[3] = test system: MeWo human melanoma cells; assay: MeWo melanoma tumors (500 mm^3) in nude mice: SDF-1/CXCR4 staining, necrosis, hypoxia, perfusion; format: in vivo; details: day 4
Protocol: MeWo human melanoma cells were implanted subdermally in nude mice. When tumors reached 500 mm^3, treatment with CA1P, AMD-3100 or the combination of the two drugs was initiated. CA1P was given as a single injection and AMD-3100 was given in a concentration of 5 mg/kg for 3 sequential days. On day 4, mice were sacrificed and tumors harvested for evaluation of the expression of human SDF-1 and mouse CXCR4, as well as tumor necrosis, hypoxia and vessel perfusion.
Longitudinal tumor sections were stained for either SDF-1 or mouse CXCR4 expression.
FIG. 2 provides a statistical quantification of the relative necrosis area in all tumors from treated and untreated mice. Hypoxic tumor area and perfused tumor area was also measured for all treated and untreated tumors using pimonidazole and Hoechst staining respectively (see FIG. 3).

[4] = test system: SDF-1; assay: Plasma SDF-1 by ELISA in nude mice after VDA treatment; format: in vivo; details: both tumor-free and 500 mm^3 MeWo tumor-bearing nude mice; 4 hours after treatment
Protocol: To investigate the possibility that systemic induction of SDF-1 is involved in the acute mobilization of CEPs by VDA treatment, plasma from non-tumor or 500 mm^3 MeWo human melanoma bearing nude mice obtained 4 hours after treatment with CA1P was analyzed for human and mouse SDF-1 using specific ELISAs. From this analysis, it was determined that an acute 2 fold increase in SDF-1 occurs in both tumor-free and tumor-bearing nude mice following CA1P treatment. […] Thus, there is a rapid host proangiogenic reaction in response to VDA treatment similar to that observed in mice.

[5] = test system: SDF-1; assay: Clinical data from cancer patients with advanced solid tumors treated with a VDA; format: in vivo, human; details: 12 cancer patients with advanced solid tumors; 4 hours after treatment
[6] = MeWo tumors, CA1P single injection, AMD-3100 5 mg/kg for 3 sequential days

Row | SMILES | CEP levels in peripheral blood [1] | bone marrow derived (GFP+) cell homing to tumor site and incorporation into tumor blood vessels (CD31+) [2] | human SDF-1 levels in tumors ([3]; MeWo tumor sections) | invasion of mouse CXCR4+ cells to the tumor site ([3]; MeWo tumor sections) | tumor hypoxia (pimonidazole staining) [3, 6] [%] | tumor necrosis (area of total tumor area) [3, 6] [%] | tumor perfusion (Hoechst staining) [3, 6] [%] | increase in plasma SDF-1 [4] [fold] | circulating SDF-1 plasma levels [5] | number of CD133 and CD34 positive cells [5]
1 | c1cc(CN2CCCNCCNCCCNCC2)ccc1CN1CCCNCCNCCCNCC1 [AMD-3100, 1,1′-[1,4-phenylenebis(methylene)]-bis-1,4,8,11-tetra-azacyclotetradecane] | rapid and significant increases | – | – | – | – | – | – | – | – | –
2 | COc1cc(/C=C\c2ccc(OC)c(OP(=O)(O)O)c2OP(=O)(O)O)cc(OC)c1OC [CA1P, combretastatin A-1 diphosphate] | rapid and significant increases | recruits bone marrow derived proangiogenic cells to tumors | upregulation | invasion of mouse CXCR4+ cells to the tumor site | ~12 | ~30 | ~7 | 2 | – | –
3 | COc1ccc(/C=C\c2cc(OC)c(OC)c(OC)c2)cc1OP(=O)(O)O [CA4P, combretastatin A-4 phosphate] | – | – | – | – | – | – | – | – | substantially increased | substantially increased
